What is called inhibition is the change of the read-out against control, counted positive when it falls. A word on the melting point: it is the temperature, or range, at which the solid turns liquid.

Data set [1] relates to Phytophthora infestans—PHYTIN. As to the kind of experiment: whole plant or invertebrate. It counts as in vivo. Conditions: Phytophthora, in Solanum lycopersicum, 24 h, read-out: PHYTIN in vivo 1 Day Protectant.
Data set [2] concerns Mycosphaerella graminicola (Septoria tritici—SEPTTR). Nature of the data set: In vitro fungal growth inhibition, Mycosphaerella graminicola (SEPTTR). In kind it is cell-based. Conditions: Zymoseptoria tritici; 25 ppm in the growth medium; read-out: SEPTTR in vitro Growth Inhibition.
The test system of the next data set is Ustilago maydis (USTIMA). Nature of the data set: microbe, parasite or virus in culture. In kind it is cell-based. Conditions: Mycosarcoma maydis, read-out: USTIMA in vitro Growth Inhibition.
Data set [3] deals with Stagonospora nodorum (Leptosphaeria nodorum—LEPTNO). Nature of the data set: In vitro fungal growth inhibition, Stagonospora nodorum (LEPTNO). In kind it is cell-based. Conditions: Leptosphaeria; 25 ppm in the growth medium; read-out: LEPTNO in vitro Growth Inhibition.
For data set [4], the system named is Leptosphaeria nodorum—LEPTNO. Nature of the data set: Glume Blotch of Wheat, in vivo whole plant, 24 Hour Protectant. Conditions: wheat plants sprayed at 100 ppm, inoculated after 24 hours, control of fungal infection vs untreated plants; for pest or weed control at 100 ppm: Leptosphaeria, read-out: LEPTNO in vivo 1 Day Protectant.
The subject of data set [5] is Phytophthora infestans (PHYTIN). As to the kind of experiment: microbe, parasite or virus in culture. In kind it is cell-based. Conditions: Phytophthora infestans, read-out: PHYTIN in vitro Growth Inhibition.
The test system of data set [6] is Puccinia recondita—PUCCRT. Nature of the data set: Brown Rust of Wheat, in vivo whole plant, 24 Hour Protectant. Conditions: Puccinia; wheat plants sprayed at 100 ppm, inoculated after 24 hours; control of fungal infection vs untreated plants; read-out: PUCCRT in vivo 1 Day Protectant.
For another data set, the system named is Septoria tritici—SEPTTR. Nature of the data set: Leaf Blotch of Wheat, in vivo whole plant, 24 Hour Protectant. Conditions: Zymoseptoria tritici, 24 h, wheat plants sprayed at 100 ppm, inoculated after 24 hours; control of fungal infection vs untreated plants; read-out: SEPTTR in vivo 1 Day Protectant.
The subject of data set [7] is Rhizoctonia solani (RHIZSO). Nature of the data set: microbe, parasite or virus in culture. In kind it is cell-based. Conditions: Rhizoctonia solani, read-out: RHIZSO in vitro Growth Inhibition.
Data set [8] concerns Magnaporthe grisea (Pyricularia oryzae—PYRIOR). Nature of the data set: microbe, parasite or virus in culture. It counts as cell-based. Conditions: Pyricularia oryzae, read-out: PYRIOR in vitro Growth Inhibition.
For a further data set, the system named is Erysiphe graminis—ERYSGT. As to the kind of experiment: Powdery Mildew of Wheat, in vivo whole plant, 24 Hour Protectant. Conditions: Erysiphe; wheat plants sprayed at 100 ppm, inoculated after 24 hours; control of fungal infection vs untreated plants; read-out: ERYSGT in vivo 1 Day Protectant.

The compound `O=C(NCCc1ccc(Cl)cc1)c1cccnc1O` [Compound 518] gave a melting point of 219 to 221 °C. For the same compound, the pest or weed control at 100 ppm in data set [1] was 25 to 74%. In addition, the inhibition at 25 ppm in [2] is below 80%. In addition, the inhibition at 25 ppm in the data set on Ustilago maydis (USTIMA) was below 80%. Besides, the inhibition at 25 ppm in [3] was below 80%. For the same compound, the pest or weed control at 100 ppm in data set [4] is below 25%. Besides, the inhibition at 25 ppm in data set [5] was below 80%. In [6], the pest or weed control at 100 ppm was below 25%. In the data set on Septoria tritici—SEPTTR, the pest or weed control at 100 ppm was below 25%. Further, the inhibition at 25 ppm in [7] is below 80%. Besides, the inhibition at 25 ppm in [8] is below 80%. For the same compound, the pest or weed control at 100 ppm in the data set on Erysiphe graminis—ERYSGT is below 25%.
Take `O=C(NC(Cc1ccccc1)c1ccccc1)c1cccnc1O` (stereo not drawn) [Compound 519]: the melting point lay within 190 to 192 °C. Moreover, the pest or weed control at 100 ppm in [1] is below 25%. For the same compound, the inhibition at 25 ppm in data set [2] was below 80%. In addition, the inhibition at 25 ppm in the data set on Ustilago maydis (USTIMA) is below 80%. In addition, the inhibition at 25 ppm in data set [3] was below 80%. In addition, in [4], the pest or weed control at 100 ppm was 25 to 74%. Moreover, in data set [5], the inhibition at 25 ppm was below 80%. The pest or weed control at 100 ppm in [6] was below 25%. Besides, the pest or weed control at 100 ppm in the data set with Septoria tritici—SEPTTR was below 25%. Besides, the inhibition at 25 ppm in data set [7] is below 80%. In data set [8], the inhibition at 25 ppm was below 80%. Further, in the data set on Erysiphe graminis—ERYSGT, the pest or weed control at 100 ppm was below 25%.
In turn, `O=C(Nc1ccccc1Oc1ccccc1)c1cccnc1O` [Compound 520] showed a melting point of 234 to 235 °C. Besides, the pest or weed control at 100 ppm in data set [1] is below 25%. The inhibition at 25 ppm in data set [2] was below 80%. In addition, the inhibition at 25 ppm in the data set on Ustilago maydis (USTIMA) was below 80%. In data set [3], the inhibition at 25 ppm is below 80%. For the same compound, in data set [4], the pest or weed control at 100 ppm fell in the range of 25 to 74%. Besides, in data set [5], the inhibition at 25 ppm is below 80%. Further, the pest or weed control at 100 ppm in data set [6] is below 25%. In the data set with Septoria tritici—SEPTTR, the pest or weed control at 100 ppm was below 25%. Further, the inhibition at 25 ppm in [7] is below 80%. For the same compound, the inhibition at 25 ppm in data set [8] was below 80%. Also, in the data set with Erysiphe graminis—ERYSGT, the pest or weed control at 100 ppm was below 25%.
`O=C(Nc1cccc(Oc2ccccc2)c1)c1cccnc1O` [Compound 521] yielded a melting point of 200 to 201 °C. Further, the pest or weed control at 100 ppm in [1] lay in the range of 25 to 74%. For the same compound, the inhibition at 25 ppm in data set [2] is below 80%. For the same compound, the inhibition at 25 ppm with Ustilago maydis (USTIMA) was below 80%. Further, the inhibition at 25 ppm in data set [3] is below 80%. In addition, the pest or weed control at 100 ppm in [4] lay within 25 to 74%. Also, the inhibition at 25 ppm in [5] was below 80%. The pest or weed control at 100 ppm in data set [6] was below 25%. Further, in the data set with Septoria tritici—SEPTTR, the pest or weed control at 100 ppm was below 25%. Also, the inhibition at 25 ppm in data set [7] is below 80%. For the same compound, the inhibition at 25 ppm in [8] was below 80%. In addition, the pest or weed control at 100 ppm in the data set on Erysiphe graminis—ERYSGT was below 25%.
In the case of `O=C(Nc1ccc(Oc2ccccc2)cc1)c1cccnc1O` [Compound 522], the melting point is 223 to 224 °C. Further, in data set [1], the pest or weed control at 100 ppm is below 25%. Moreover, the inhibition at 25 ppm in [2] is below 80%. Also, in the data set on Ustilago maydis (USTIMA), the inhibition at 25 ppm is below 80%. The inhibition at 25 ppm in [3] was below 80%. Further, in data set [4], the “LEPTNO in vivo 1 Day Protectant” value is given as “+ +”. Besides, the inhibition at 25 ppm in [5] was below 80%. The pest or weed control at 100 ppm in [6] was below 25%. In the data set on Septoria tritici—SEPTTR, the pest or weed control at 100 ppm was below 25%. Further, the inhibition at 25 ppm in [7] is below 80%. Further, the inhibition at 25 ppm in data set [8] was below 80%. The pest or weed control at 100 ppm in the data set with Erysiphe graminis—ERYSGT is below 25%.
In turn, `Cc1ccc(C(=O)NC2CC(C)(C)CC(C)(C)C2)c(O)n1` [Compound 524] came in with a melting point of 307 to 308 °C. For the same compound, the pest or weed control at 100 ppm in [1] was below 25%. In data set [2], the inhibition at 25 ppm was below 80%. The inhibition at 25 ppm with Ustilago maydis (USTIMA) is below 80%. Besides, the inhibition at 25 ppm in data set [3] is below 80%. The pest or weed control at 100 ppm in data set [4] was below 25%. For the same compound, in data set [5], the inhibition at 25 ppm was below 80%. In [6], the pest or weed control at 100 ppm was below 25%. The pest or weed control at 100 ppm in the data set with Septoria tritici—SEPTTR was in the range of 25 to 74%. Moreover, the inhibition at 25 ppm in data set [7] is below 80%. The inhibition at 25 ppm in data set [8] was below 80%. The pest or weed control at 100 ppm in the data set with Erysiphe graminis—ERYSGT was below 25%.
Turning to `Cc1ccc(C(=O)N[C@H]2COC(=O)[C@H](Cc3ccccc3)[C@@H](OC(=O)C(C)C)[C@H](C)OC2=O)c(O)n1` [Compound 525], the melting point is 247 to 250 °C. Also, in data set [1], the pest or weed control at 100 ppm is below 25%. In [2], the inhibition at 25 ppm was below 80%. In addition, the inhibition at 25 ppm in the data set with Ustilago maydis (USTIMA) was below 80%. Further, the inhibition at 25 ppm in [3] is below 80%. Besides, in data set [4], the “LEPTNO in vivo 1 Day Protectant” value is “+ +”. Moreover, in data set [5], the inhibition at 25 ppm is below 80%. Further, the pest or weed control at 100 ppm in [6] was 25 to 74%. The pest or weed control at 100 ppm in the data set with Septoria tritici—SEPTTR lay in the range of 25 to 74%. In addition, the inhibition at 25 ppm in [7] was below 80%. Also, the inhibition at 25 ppm in data set [8] was below 80%. For the same compound, the pest or weed control at 100 ppm in the data set on Erysiphe graminis—ERYSGT is below 25%.
In turn, `CC1(C)CC(NC(=O)c2cc(O)cnc2O)CC(C)(C)C1` [Compound 526] registered a melting point of 320 to 327 °C. The pest or weed control at 100 ppm in [1] is below 25%. The inhibition at 25 ppm in data set [2] was below 80%. For the same compound, the inhibition at 25 ppm in the data set on Ustilago maydis (USTIMA) is below 80%. Also, in [3], the inhibition at 25 ppm is below 80%. Besides, the pest or weed control at 100 ppm in data set [4] lay within 25 to 74%. The inhibition at 25 ppm in data set [5] was below 80%. Moreover, in data set [6], the pest or weed control at 100 ppm is below 25%. In addition, the pest or weed control at 100 ppm in the data set with Septoria tritici—SEPTTR was in the range of 25 to 74%. Besides, the inhibition at 25 ppm in data set [7] was below 80%. In addition, the inhibition at 25 ppm in data set [8] was below 80%. The pest or weed control at 100 ppm in the data set with Erysiphe graminis—ERYSGT was below 25%.
On to `CC(C)C(=O)O[C@H]1[C@H](C)OC(=O)[C@@H](NC(=O)c2cc(O)cnc2O)COC(=O)[C@@H]1Cc1ccccc1` [Compound 527], for which the melting point was 120 to 130 °C. The pest or weed control at 100 ppm in data set [1] was below 25%. Moreover, the inhibition at 25 ppm in data set [2] is below 80%. The inhibition at 25 ppm with Ustilago maydis (USTIMA) was below 80%. Further, the inhibition at 25 ppm in [3] is below 80%. Moreover, the pest or weed control at 100 ppm in [4] is below 25%. The inhibition at 25 ppm in data set [5] is below 80%. Moreover, the pest or weed control at 100 ppm in [6] lay in the range of 25 to 74%. In the data set on Septoria tritici—SEPTTR, the pest or weed control at 100 ppm fell in the range of 25 to 74%. Further, in data set [7], the inhibition at 25 ppm was below 80%. The inhibition at 25 ppm in data set [8] is below 80%. Moreover, the pest or weed control at 100 ppm in the data set on Erysiphe graminis—ERYSGT is below 25%.
Compound `Cc1cc(C)c(C(=O)NC2CC(C)(C)CC(C)(C)C2)c(O)n1` [Compound 528] had a melting point of 286 to 288 °C. In data set [1], the pest or weed control at 100 ppm is below 25%. In addition, the inhibition at 25 ppm in data set [2] was below 80%. Further, the inhibition at 25 ppm in the data set on Ustilago maydis (USTIMA) is below 80%. Moreover, the inhibition at 25 ppm in [3] was below 80%. Further, the pest or weed control at 100 ppm in data set [4] is below 25%. Besides, the inhibition at 25 ppm in data set [5] is below 80%. In addition, the pest or weed control at 100 ppm in data set [6] was below 25%. Also, the pest or weed control at 100 ppm in the data set with Septoria tritici—SEPTTR fell in the range of 25 to 74%. Further, in [7], the inhibition at 25 ppm was below 80%. Also, the inhibition at 25 ppm in data set [8] was below 80%. Further, the pest or weed control at 100 ppm in the data set on Erysiphe graminis—ERYSGT was below 25%.
In the case of `Cc1nc(O)c(C(=O)NC2CC(C)(C)CC(C)(C)C2)cc1Cl` [Compound 530], the melting point is 329 to 331 °C. Besides, in data set [1], the pest or weed control at 100 ppm is below 25%. Also, the inhibition at 25 ppm in [2] was below 80%. Also, the inhibition at 25 ppm in the data set with Ustilago maydis (USTIMA) is below 80%. Besides, the inhibition at 25 ppm in data set [3] was below 80%. Further, in data set [4], the pest or weed control at 100 ppm lay within 25 to 74%. In addition, in [5], the inhibition at 25 ppm is below 80%. Further, in data set [6], the pest or weed control at 100 ppm is 25 to 74%. For the same compound, the pest or weed control at 100 ppm in the data set on Septoria tritici—SEPTTR was 25 to 74%. Further, the inhibition at 25 ppm in data set [7] is below 80%. For the same compound, in data set [8], the inhibition at 25 ppm was below 80%. Further, the pest or weed control at 100 ppm in the data set with Erysiphe graminis—ERYSGT is below 25%.

The record behind these values is patent US6706740B2, “Fungicidal heterocyclic aromatic amides and their compositions, methods of use and preparation” (Dow AgroSciences LLC, priority 1999, dated 2004).
